Measured values taken from PubChem BioAssay (NCI).
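How tested: cells in 96-well plates exposed to compound for 48 hours at five concentrations. GI50 = concentration required for 50% inhibition of growth. At the TGI there is no net growth.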

Columns and labels:
Test in all cases: NCI anticancer screen, dose series, 48 h
[1] = test system: UACC-257 melanoma
[2] = test system: RXF 393 renal
[3] = test system: RPMI-8226 leukemia
[4] = test system: MALME-3M melanoma
[5] = test system: NCI-H522 lung
[6] = test system: A549 NSCLC
[7] = test system: OVCAR-8 ovarian
[8] = test system: A498 renal
[9] = test system: HCC-2998 colon
[10] = test system: SNB-75 CNS

| SMILES | TGI [1] [µM] | TGI [2] [µM] | TGI [3] [µM] | TGI [4] [µM] | TGI [5] [µM] | TGI [6] [µM] | TGI [7] [µM] | TGI [8] [µM] | TGI [9] [µM] | TGI [10] [µM] | GI50 [2] [µM] | GI50 [3] [µM] | GI50 [5] [µM] | GI50 [7] [µM] | GI50 [9] [µM] |
| --- | --- | --- | --- | --- | --- | --- | --- | --- | --- | --- | --- | --- | --- | --- | --- |
| CCOC(=O)Nc1ccc(S(=O)(=O)Nn2cnnc2)cc1 | > 100 | > 100 | 94.3 | > 100 | > 100 | > 100 | > 100 | 96.2 | 74.5 | – | – | – | – | – | – |
| NC(=S)NC/C=C/Cl | > 100 | > 100 | > 100 | > 100 | > 100 | > 100 | > 100 | – | – | > 100 | – | – | – | – | – |
| Cn1c(=O)sc2cc(C(=S)N3CCCCC3)ccc21 | > 100 | > 100 | > 100 | 55.4 | – | – | > 100 | > 100 | – | 86.5 | – | – | – | – | – |
| Cc1cc(-c2nc3cccc(O)c3s2)ccc1N | > 100 | > 100 | > 100 | – | – | 41.4 | 99 | – | > 100 | > 100 | – | – | – | – | – |
| CC1=CCC[C@H]2[C@](C)(CC3=CC(=O)C(SCC(C)C)=CC3=O)[C@@H](C)CC[C@]12C | 37.8 | 26.1 | 14.3 | – | – | 29.9 | 26.1 | 33.2 | 31.5 | 23.8 | – | – | – | – | – |
| CC1(C)CC[C@]2(C(=O)O)CC[C@]3(C)[C@H](C(=O)C=C4[C@@]5(C)C=C(C#N)C(=O)C(C)(C)[C@@H]5CC[C@]43C)[C@@H]2C1 | 2.84 | 1.5 | 1.19 | 1.55 | 5.48 | 5.86 | 2.42 | 0.977 | – | 2.84 | – | – | – | – | – |
| O=C1/C(=C/c2cccc3ccccc23)CCc2ccc([N+](=O)[O-])cc21 | – | 88.8 | > 100 | > 100 | – | > 100 | > 100 | > 100 | > 100 | 42.1 | – | – | – | – | – |
| CCSC1=CC2(O)N(CCc3ccc(OC)c(OC)c3)C(=O)CC2(C(=O)OC)CC1=O (centres undefined) | 34.6 | – | 91.3 | – | – | > 100 | 31 | > 100 | 36 | – | – | – | – | – | – |
| COC(=O)Cn1cnc2c(Cl)nc(Nc3ccccc3)nc21 | > 100 | > 100 | > 100 | > 100 | – | > 100 | 66.7 | > 100 | 82.8 | > 100 | – | – | – | – | – |
| O=C(c1ccc(Cl)cc1)N1CCN=C1c1cc2ccccc2c2ccccc12 | 31.8 | 30.6 | 55.8 | 32.5 | – | 31 | 33.5 | 28.9 | – | 25.7 | – | – | – | – | – |
| CC1(C)Oc2ccc3c(=O)cc(-c4ccccc4)oc3c2C1C(=O)O (centres undefined) | > 100 | > 100 | – | > 100 | > 100 | > 100 | > 100 | > 100 | > 100 | – | – | – | – | – | – |
| COc1ccc(C(=O)/C=C/c2cc(-c3cc(OC)c(OC)c(OC)c3)n[nH]2)cc1 | – | 2.56 | 2.49 | – | 3.2 | – | 8.26 | – | 3.4 | – | 1.27 | 0.433 | 1.47 | 2.43 | 1.78 |
| O=[N+]([O-])/C(C(Cl)=C(Cl)Cl)=C(/Nc1cccc2cccnc12)n1nnc2ccccc21 | > 100 | – | 83.6 | 19.7 | – | > 100 | 32 | – | > 100 | 67.8 | – | – | – | – | – |
| COc1ccc(Oc2ccccc2N)cc1 | > 100 | 98.2 | > 100 | > 100 | – | > 100 | > 100 | > 100 | 57.1 | > 100 | – | – | – | – | – |
| O=C(O)c1cccc(NC(C(=O)c2ccccc2)c2ccccc2)c1 (centres undefined) | – | > 100 | > 100 | > 100 | > 100 | > 100 | > 100 | > 100 | > 100 | – | – | – | – | – | – |
| Cc1nc(-c2cc3ccccc3oc2=O)cs1 | > 100 | > 100 | > 100 | > 100 | > 100 | > 100 | > 100 | – | > 100 | – | – | – | – | – | – |
| O=C(N=Nc1ccccc1Cl)NNc1ccccc1Cl | > 100 | – | 65.6 | > 100 | 52.7 | > 100 | 81.7 | > 100 | 94.1 | > 100 | – | – | – | – | – |
| O=C(OCc1ccccc1)N1CCNCCNCCN(C(=O)OCc2ccccc2)CCNCC1 | 32 | – | 50.8 | 36.5 | 31.4 | > 100 | 32.8 | 70.1 | – | 53 | – | – | – | – | – |

| SMILES | TGI [1] [µM] | TGI [2] [µM] | TGI [3] [µM] | TGI [4] [µM] | TGI [5] [µM] | TGI [6] [µM] | TGI [7] [µM] | TGI [8] [µM] | TGI [9] [µM] | TGI [10] [µM] | GI50 [2] [µM] | GI50 [3] [µM] | GI50 [5] [µM] | GI50 [7] [µM] | GI50 [9] [µM] |
| --- | --- | --- | --- | --- | --- | --- | --- | --- | --- | --- | --- | --- | --- | --- | --- |
| Clc1cc(Cl)ncn1 | – | > 100 | > 100 | > 100 | > 100 | > 100 | > 100 | – | > 100 | > 100 | – | – | – | – | – |
| C#CCOC(=O)c1ccc(OC(C)=O)cc1 | > 100 | > 100 | > 100 | – | > 100 | – | > 100 | > 100 | > 100 | > 100 | – | – | – | – | – |
| CCC(=O)OC1CCn2c1nc1c2C(=O)C(C)=C(NC(C)=O)C1=N (centres undefined) | 2.5 | – | – | 2.74 | 2.79 | 10.2 | 2.89 | 4.21 | 13 | 4.45 | – | – | – | – | – |
| CCOC(=O)CCC(C(=O)OCC)n1nnc2cc(Nc3c(C)[n+]([O-])c4cc(F)c(OCC)cc4[n+]3[O-])ccc21 (centres undefined) | > 100 | 38.7 | > 100 | > 100 | > 100 | > 100 | > 100 | > 100 | – | 57.2 | – | – | – | – | – |
| Cc1c2cccc-2ccc2c3ccccc3n(C(=O)c3ccc(Cl)cc3)c12 | > 100 | > 100 | > 100 | > 100 | > 100 | > 100 | > 100 | > 100 | – | > 100 | – | – | – | – | – |
| COc1cc(N(CCC#N)CCC#N)ccc1/C=N\NC(=O)c1ccc(C)cc1 | > 100 | > 100 | – | > 100 | > 100 | > 100 | > 100 | – | – | > 100 | – | – | – | – | – |
| O=c1[nH]c(=O)n(C2OC(CO)C(O)C2O)cc1OCCCc1ccccc1 (centres undefined) | > 100 | > 100 | – | > 100 | – | > 100 | > 100 | > 100 | > 100 | – | – | – | – | – | – |
| Oc1ccc(-c2nc3ccccc3s2)cc1 | > 100 | > 100 | > 100 | > 100 | 47.9 | > 100 | > 100 | > 100 | – | > 100 | – | – | – | – | – |
| COC(=O)Nc1nc2ccc(NC(=O)c3ccc(I)cc3)cc2[nH]1 | > 100 | > 100 | > 100 | > 100 | > 100 | > 100 | > 100 | > 100 | – | > 100 | – | – | – | – | – |
| COc1cc2nc(-c3cccs3)nc(Nc3cccc(Cl)c3)c2cc1OC | > 100 | – | > 100 | > 100 | > 100 | > 100 | > 100 | > 100 | – | > 100 | – | – | – | – | – |
| CC1CCC2(OC1)OC1C(O)C3C4CCC5CC(OC6OC(CO)C(OC7OC(CO)C(O)C(OC8OCC(O)C(O)C8O)C7OC7OC(CO)C(O)C(OC8OC(CO)C(O)C(O)C8O)C7O)C(O)C6O)C(O)CC5(C)C4CCC3(C)C1C2C (centres undefined) | 22.9 | – | 9.28 | – | 3.79 | 4.32 | 4.21 | 46.6 | 4.69 | 7.76 | – | – | – | – | – |
| O=C1NC(Cc2ccc(O)cc2)C(=O)NC1Cc1ccc(O)cc1 (centres undefined) | > 100 | > 100 | > 100 | > 100 | > 100 | > 100 | > 100 | > 100 | – | > 100 | – | – | – | – | – |
| O=C1NC(N2CCOCC2)=N/C1=C\c1ccc(O)cc1 | > 100 | > 100 | > 100 | > 100 | > 100 | > 100 | > 100 | – | > 100 | > 100 | – | – | – | – | – |
| CC(=O)C(C)(C)CCC(C)(C)C(C)=O | > 100 | > 100 | – | > 100 | > 100 | > 100 | > 100 | – | > 100 | > 100 | – | – | – | – | – |
| CC(C)=CCC[C@@H](C)C1=C(O)C(Nc2ccccc2I)=C(C)C(=O)C1=O | 74.3 | > 50 | > 36.8 | 29.8 | – | > 50.6 | > 32.2 | 31.5 | 56.7 | 37.1 | – | – | – | – | – |
| Clc1ccc(C2=CCN3CC=C(c4ccc(Cl)cc4)C23)cc1 | 24.2 | – | 18.5 | 27.3 | 22.8 | 28.3 | 29.4 | – | 11.3 | – | – | – | – | – | – |
| COc1ccc2cc(C(C)C(=O)N3C(=O)OCC3(C)C)ccc2c1 (centres undefined) | > 100 | – | > 100 | > 100 | – | > 100 | > 100 | > 100 | > 100 | > 100 | – | – | – | – | – |
| COC1=CC(=O)N(C)C(O)C1(C#N)OC1OC(CO)C(O)C(O)C1O (centres undefined) | > 100 | – | > 100 | – | > 100 | > 100 | > 100 | > 100 | > 100 | > 100 | – | – | – | – | – |
